US20150253323A1, “METHODS AND KITS FOR HIGH THROUGHPUT SCREENING FOR COMPOUNDS TARGETING DNA-BINDING AND RNA-BINDING PROTEINS” (The Florida International University Board of Trustees, priority 2014, published 2015)
Entries after “also recorded” stand apart in the source; their conditions may differ. Where a name gives a salt, the structure may show the parent alone. Each block holds one molecule with its values, some of them ahead of it. Starred links: 1 amine or outer side, 2 acyl side, 3 side chain; linkers in the order of their positions; H or OH if unused. Positions of bridges follow the written chain, without caps; N, C: chain ends. Non-standard residues stand in square brackets, D forms with d. Residues, ends and D or L forms follow the SMILES beside them. Chains are numbered I, II in the order given. Actinocin(9to1) = Cc1c2oc3c(C)ccc(C(=O)[*:1])c3nc-2c(C(=O)[*:2])c(N)c1=O; NMeV = CN[C@H](C(=O)O)C(C)C; Sar = CNCC(=O)O

Experiments:
HMGA2-FL814 interaction = assay: PDI-ELISA for HMGA2 binding to DNA oligomer FL814; set-up: species or system mammalian; conditions: for OD450 of the PDI-ELISA in the presence of the compound: 100 nM compound, 100 nM FL814, 1 μM HMGA2, 2×SSCT, OD450 without drug 1.44; for IC50: 25° C., read-out: IC50 for inhibition of binding of HMGA2 to DNA; for inhibition of HMGA2-FL814 interactions: compound at 100 nM in 2×SSCT, FIG. 12 / Table 1; for enhancement of HMGA2 binding to FL814 (OD450): titration, 100 nM FL814, 1 μM HMGA2, FIG. 14
3T3-L1 cells = assay: Oil Red O staining of differentiated 3T3-L1 cells (adipogenesis); type: cell-based, mouse; conditions: 3T3-L1, Oil Red O absorbance 492 nm; read-out: inhibition IC50 of neutral lipids in the differentiated cells
Description: Mouse pre-adipocytes (3T3-L1 cells) were a gracious gift from Dr Jun Liu at Mayo Clinic. 3T3-L1 cells were maintained in DMEM supplemented with 10% FBS, 100 U/ml penicillin, 100 μg/ml streptomycin and 5 μg/ml plasmocin. The cells were grown under normal culture conditions of 5% CO2 and humidity. Cells were maintained for a minimum of three passages in linear growth prior to differentiation. To differentiate the 3T3-L1 pre-adipocytes into adipocytes, we used the protocol previously described by Zebisch et al. (Zebisch, K., et al. (2012)). Briefly, 3T3-L1 pre-adipocytes were sub-cultured in DMEM supplemented with 5% newborn calf serum, 100 U/ml penicillin, 100 μg/ml streptomycin and 5 μg/ml plasmocin (Basal Media 1—BM1). The cells were then plated at 6×10^5 cells per dish in 35-mm dishes, 3×10^5 cells per well in a 12-well plate, 1.5×10^5 cells in a 24-well plate or 3.0×10^4 cells per well in a 96-well plate. The cells were grown to confluency with BM1 replacement every other day. Following 48 h of confluency, 3T3-L1 cells were treated with Differentiation medium 1 (DM1), which is BM1 supplemented with […] iso-butyl-methylxanthine, 0.25 μM dexamethasone, 1 μg/ml insulin and 2 μg/ml rosiglitazone. After 48 h, the medium was replaced with differentiation medium 2 (DM2); this is BM1 supplemented with 1 μg/ml insulin. On the seventh day, the cells were placed in DMEM with FBS. The cells were cultured to the date indicated in the experiments below with media changes every other day. The presence of adipogenesis was confirmed by microscopic detection of adipose bodies in the cells. For our experiments, only cultures with >80% differentiation were used.
Following differentiation and drug treatment, Oil Red O staining was used to qualitatively and quantitatively assess the level of neutral lipids in the differentiated cells. For qualitative assessment by phase microscopy, cells were washed twice in PBS and then fixed with 10% formalin for 30 min at room temperature. Oil Red O was reconstituted at 300 mg per 100 ml of isopropanol. The Oil Red O solution was prepared for staining by adding 20 ml of deionized water to 30 ml of the Oil Red O stock solution and filtered. The cells were then incubated for 5 min in 60% isopropanol. The Oil Red O working solution was then added to cells for 5 min. The monolyers were then rinsed clean with deionized water. The cells were then visualized using phase microscopy on the EVOS XL Core microscope. For quantitative assessment of adipogenesis in 96-well formats, cells were lysed in dimethylsulfoxide (DMSO) following the water wash of Oil Red O stained cells. The DMSO released the intracellular Oil Red O into the solution. The absorbance (492 nm) was measured using the BioTek Synergy H1 plate reader.

HMGA2-FL814 complex = target: T1, HMGA2-FL814 complex (Mus musculus, UniProt P52927); assay: Competition dialysis assay, HMGA2-FL814 complex; conditions: 3 μM complex dialyzed against 0.73 μM TMPyP4, 72 h, 2×SSCT
T1 sequence (P52927 2-108 limits assumed): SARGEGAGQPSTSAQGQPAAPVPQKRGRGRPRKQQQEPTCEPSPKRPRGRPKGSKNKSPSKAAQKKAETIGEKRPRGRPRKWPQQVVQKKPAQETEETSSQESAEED

FL814 = assay: Competition dialysis assay, free FL814; type: binding
[1] = target: T2, HMGA2 (high mobility group protein AT-hook 2) (mammalian, UniProt P52926 P52926:2-109); assay: ELONA; duplex without hairpin loop; 100 nM DNA, 1 uM HMGA2; binding enhanced by TMPyP4; conditions: tags: purified as in Cui et al. 2007
T2 sequence: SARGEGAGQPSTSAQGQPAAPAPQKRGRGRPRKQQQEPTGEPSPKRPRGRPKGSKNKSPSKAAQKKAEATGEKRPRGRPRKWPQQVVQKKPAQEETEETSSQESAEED

Molecule: Cl.NCc1ccc2ccc3cccc4ccc1c2c34 [1-Pyrenemethylamine hydrochloride, 1-pyrenemethylamine hydrochloride]
OD450 of the PDI-ELISA in the presence of the compound (HMGA2-FL814 interaction): 1.36

Molecule: Cc1c2oc3c(C)ccc(C(=O)N[C@@H]4C(=O)N[C@H](C(C)C)C(=O)N5CCC[C@H]5C(=O)N(C)CC(=O)N(C)[C@@H](C(C)C)C(=O)O[C@@H]4C)c3nc-2c(C(=O)N[C@@H]2C(=O)N[C@H](C(C)C)C(=O)N3CCC[C@H]3C(=O)N(C)CC(=O)N(C)[C@@H](C(C)C)C(=O)O[C@@H]2C)c(N)c1=O [Actinomycin D, actinomycin D] (I: T[dV]P[Sar][NMeV] / II: T[dV]P[Sar][NMeV]; ester I:1-I:C, II:1-II:C; linker I:N-II:N via Actinocin(9to1))
OD450 of the PDI-ELISA in the presence of the compound (HMGA2-FL814 interaction): 1.03

OD450 of the PDI-ELISA in the presence of the compound (HMGA2-FL814 interaction): 0.91
Molecule: COc1ccc2cc3[n+](cc2c1OC)CCc1cc2c(cc1-3)OCO2 [Berberine chloride, berberine chloride]

OD450 of the PDI-ELISA in the presence of the compound (HMGA2-FL814 interaction): 0.52
Molecule: CC(=O)NCC(=O)O.CC(=O)NCC(=O)O.N=C(N)c1ccc(N=NNc2ccc(C(=N)N)cc2)cc1 [Berenil, berenil]

Molecule: C=C1C(=O)OC(CCCCCCCC)C1C(=O)O (centres unmarked) [C-75]
IC50 (3T3-L1 cells): 3700 ± 800 nM

Molecule: COC1C(O)CC(OC2CC(Oc3cc4cc5c(c(O)c4c(O)c3C)C(=O)[C@@H](OC3CC(OC4CC(OC6CC(C)(O)C(OC(C)=O)C(C)O6)C(O)C(C)O4)C(O)C(C)O3)[C@H]([C@H](OC)C(=O)[C@@H](O)[C@@H](C)O)C5)OC(C)C2OC(C)=O)OC1C (some centres unmarked) [Chromomycin, chromomycin]
OD450 of the PDI-ELISA in the presence of the compound (HMGA2-FL814 interaction): 1.3

OD450 of the PDI-ELISA in the presence of the compound (HMGA2-FL814 interaction): 1.38
Molecule: COc1cc2cc3c4cc(OC)c(OC)cc4cc[n+]3c(C)c2cc1OC.[Cl-] [Coralyne chloride, coralyne chloride]

OD450 of the PDI-ELISA in the presence of the compound (HMGA2-FL814 interaction): 0.161
IC50 (HMGA2-FL814 interaction): 60.6 ± 8.5 nM
Molecule: N=C(N)c1ccc(-c2cc3ccc(C(=N)N)cc3[nH]2)cc1 [DAPI]
inhibition of HMGA2-FL814 interactions (HMGA2-FL814 interaction): potently inhibit; also recorded: completely inhibit

OD450 of the PDI-ELISA in the presence of the compound (HMGA2-FL814 interaction): 1.3
Molecule: CCN1/C(=C/C=C/C=C/c2oc3ccccc3[n+]2CC)Oc2ccccc21.[I-] [DODC]

Molecule: Cc1c2ccncc2c(C)c2c1[nH]c1ccccc12 [Ellipticine]
OD450 of the PDI-ELISA in the presence of the compound (HMGA2-FL814 interaction): 1.39

Molecule: CN1CCN(c2ccc3[nH]c(-c4ccc5[nH]c(-c6ccc(O)cc6)nc5c4)nc3c2)CC1 [Hoechst 33258]
OD450 of the PDI-ELISA in the presence of the compound (HMGA2-FL814 interaction): 0.166
IC50 (HMGA2-FL814 interaction): 73 ± 9.6 nM
inhibition of HMGA2-FL814 interactions (HMGA2-FL814 interaction): potently inhibit; also recorded: completely inhibit

OD450 of the PDI-ELISA in the presence of the compound (HMGA2-FL814 interaction): 1.06
Molecule: CN(C)c1ccc(C(=C2C=CC(=[N+](C)C)C=C2)c2ccc([N+](C)(C)C)cc2)cc1.[Cl-].[Cl-] [Methyl Green, methyl green]

OD450 of the PDI-ELISA in the presence of the compound (HMGA2-FL814 interaction): 0.93
Molecule: CN(C)c1ccc2nc3ccc(=[N+](C)C)cc-3sc2c1 [Methylene Blue, methylene blue]

Molecule: O=C1c2ccc3c4ccc5c6c(ccc(c7ccc(c2c37)C(=O)N1CCN1CCCCC1)c64)C(=O)N(CCN1CCCCC1)C5=O [PIPER, N,N′-bis[2-(1-piperidino)ethyl]-3,4,9,10-perylenetetracarboxylic diimide]
OD450 of the PDI-ELISA in the presence of the compound (HMGA2-FL814 interaction): 1.27

OD450 of the PDI-ELISA in the presence of the compound (HMGA2-FL814 interaction): 0.65
Molecule: N=C(N)c1ccc(OCCCCCOc2ccc(C(=N)N)cc2)cc1 [Pentamidine, pentamidine isethionate salt]

OD450 of the PDI-ELISA in the presence of the compound (HMGA2-FL814 interaction): 1.49
Molecule: Nc1ccc2cc3ccc(N)cc3nc2c1 [Proflavine hemisulfate, proflavine hemisulfate]

OD450 of the PDI-ELISA in the presence of the compound (HMGA2-FL814 interaction; hydrochloride): 1.5
Molecule: Nc1ccc2cc3ccc(N)cc3nc2c1 [Proflavine hydrochloride, proflavine hydrochloride]

OD450 of the PDI-ELISA in the presence of the compound (HMGA2-FL814 interaction): 1.46
Molecule: CCN(CC)CCCC(C)Nc1c2ccc(Cl)cc2nc2ccc(OC)cc12 (centres unmarked) [Quinacrine dihydrochloride, quinacrine dihydrochloride]

Molecule: C[n+]1ccccc1-c1c2nc(c(-c3cccc[n+]3C)c3ccc([nH]3)c(-c3cccc[n+]3C)c3nc(c(-c4cccc[n+]4C)c4ccc1[nH]4)C=C3)C=C2.[Cl-].[Cl-].[Cl-].[Cl-] [TMPyP2]
OD450 of the PDI-ELISA in the presence of the compound (HMGA2-FL814 interaction): 1.7
enhancement of HMGA2 binding to FL814 (OD450) (HMGA2-FL814 interaction): not able to stimulate

Molecule: C[n+]1ccc(-c2c3nc(c(-c4cc[n+](C)cc4)c4ccc([nH]4)c(-c4cc[n+](C)cc4)c4nc(c(-c5cc[n+](C)cc5)c5ccc2[nH]5)C=C4)C=C3)cc1 [TMPyP4]
binding to the FL814-HMGA2 complex (HMGA2-FL814 complex): tightly
enhancement of HMGA2 binding to double stranded oligomer (FL842/FL843) without loop (HMGA2-FL814 interaction; 100 nM annealing product of FL842 and FL843, 1 μM HMGA2, FIG. 15B): able to enhance the binding; also recorded: enhancement
OD450 of the PDI-ELISA in the presence of the compound (HMGA2-FL814 interaction): Very high
enhancement of HMGA2 binding to FL814 (OD450) (HMGA2-FL814 interaction): dramatically enhance; also recorded: significantly enhanced
binding to FL814 (FL814; 3 μM FL814 dialyzed against 0.73 μM TMPyP4, 72 h, 2×SSCT): tightly
binding stoichiometry to FL814 (FL814; competition dialysis, 0.73 μM TMPyP4): two molecules of TMPyP4 bind to one molecule of FL814

OD450 of the PDI-ELISA in the presence of the compound (HMGA2-FL814 interaction): 1.83
Molecule: CN1C(=Cc2cc[n+](C)c3ccccc23)Sc2ccccc21 [Thiazole orange, thiazole orange]

Molecule: COc1cccc2c1C(=O)c1c(O)c3c(c(O)c1C2=O)C[C@@](O)(C(C)=O)C[C@@H]3O[C@H]1C[C@H](NCc2ccc(CN[C@H]3C[C@H](O[C@H]4C[C@](O)(C(C)=O)Cc5c(O)c6c(c(O)c54)C(=O)c4c(OC)cccc4C6=O)O[C@@H](C)[C@H]3O)cc2)[C@H](O)[C@H](C)O1 [WP631]
OD450 of the PDI-ELISA in the presence of the compound (HMGA2-FL814 interaction): 0.21
IC50 (HMGA2-FL814 interaction): 41 ± 4.5 nM
inhibition of HMGA2-FL814 interactions (HMGA2-FL814 interaction): potently inhibit; also recorded: completely inhibit

Molecule: COc1cccc2c1C(=O)c1c(O)c3c(c(O)c1C2=O)C[C@@](O)(C(C)=O)C[C@@H]3O[C@H]1C[C@H](NCc2cccc(CN[C@@H]3C[C@@H](O[C@H]4C[C@](O)(C(C)=O)Cc5c(O)c6c(c(O)c54)C(=O)c4c(OC)cccc4C6=O)O[C@H](C)[C@@H]3O)c2)[C@H](O)[C@H](C)O1 [WP762]
OD450 of the PDI-ELISA in the presence of the compound (HMGA2-FL814 interaction): 0.56
IC50 (HMGA2-FL814 interaction): 115 ± 19.7 nM
inhibition of HMGA2-FL814 interactions (HMGA2-FL814 interaction): potently inhibit

OD450 of the PDI-ELISA in the presence of the compound (HMGA2-FL814 interaction): 1.91
Molecule: O=c1cc(-c2ccccc2)oc2c1ccc1ccccc12 [a-Naphthoflavone, α-naphthoflavone]

OD450 of the PDI-ELISA in the presence of the compound (HMGA2-FL814 interaction): 1.56
Molecule: O=c1cc(-c2ccccc2)oc2ccc3ccccc3c12 [b-Naphthoflavone, β-naphthoflavone]

OD450 of the PDI-ELISA in the presence of the compound (HMGA2-FL814 interaction): 1.62
Molecule: N-methyl mesoporphyrin [NMM 580]

B1: FL842/FL843 duplex (dsDNA)
DNA 1: CCCCCCATATTCGCGATTATTGCGC
DNA 2: GCGCAATAATCGCGAATATGGGGGG
binding result [1]: binds
